PMC3398407 (The Journal of Neuroscience, 2012)
“And” between values parts separate entries of the source, which are not always exact repeats. Equal values may be shown once. Read-outs that look alike come from different tables or passages of the source.

Tests used:
[1] = test system: Sprague-Dawley rats; experiment: Morris water maze; type: in vivo, rat
[2] = test system: Sprague-Dawley rats; experiment: Acquisition of contextual fear conditioning; type: in vivo, rat; settings: vs vehicle
[3] = target: T1, hM1 receptors (Homo sapiens, UniProt P11229); experiment: β-arrestin recruitment, PathHunter Express hM1 CHO cells; type: cell-based
T1 sequence (P11229 1-460): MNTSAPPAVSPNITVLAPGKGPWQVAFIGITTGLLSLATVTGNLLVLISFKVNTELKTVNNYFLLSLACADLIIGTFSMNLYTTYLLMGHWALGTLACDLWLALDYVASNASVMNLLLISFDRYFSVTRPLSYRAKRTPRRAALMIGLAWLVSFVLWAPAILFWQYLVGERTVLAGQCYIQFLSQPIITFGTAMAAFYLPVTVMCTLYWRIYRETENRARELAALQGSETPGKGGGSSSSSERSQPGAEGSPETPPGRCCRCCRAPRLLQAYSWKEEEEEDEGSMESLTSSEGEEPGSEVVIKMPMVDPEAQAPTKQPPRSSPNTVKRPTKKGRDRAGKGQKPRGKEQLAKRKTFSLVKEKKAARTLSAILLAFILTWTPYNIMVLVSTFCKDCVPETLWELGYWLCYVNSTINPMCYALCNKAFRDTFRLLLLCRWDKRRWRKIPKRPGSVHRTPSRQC

[4] = target: T2, human M1 mAChR (Homo sapiens, UniProt P11229); experiment: ERK1/2 phosphorylation in TET-inducible hM1 TREx CHO cells; type: cell-based
T2 sequence (P11229 1-460): T1 sequence (P11229 1-460)

[5] = test system: D3 receptors; settings: ref Lebois et al., 2011; cited from earlier work
[6] = test system: striatal medium spiny neurons (MSNs); design: species or system rats
[7] = target: T2, human M1 mAChR; experiment: Confocal imaging of β-arrestin2-YFP recruitment in hM1 TREx CHO cells; type: cell-based; settings: agonist 100 μM
[8] = test system: Schaffer collateral-CA1 synapse; experiment: Muscarinic long-term depression; settings: 10 minutes, rat hippocampal slices
[9] = target: T3, human M1 receptors (Homo sapiens, UniProt P11229); experiment: ERK1/2 phosphorylation; type: cell-based; settings: hM1 CHO cells, 5 min agonist; for EC50: read-out: ERK EC50
T3 sequence (P11229 1-460): T1 sequence (P11229 1-460)

[10] = test system: mPFC layer V pyramidal neurons; experiment: Whole-cell voltage clamp recordings of sEPSCs in mPFC layer V pyramidal neurons; design: species or system mice; settings: mouse mPFC slices; for effect on sEPSC frequency / interevent interval (IEI): 100 μM
[11] = target: T3, human M1 receptors; experiment: Calcium mobilization in hM1 CHO cells; settings: for Ca release % CCh max: Emax normalized to maximum CCh response; for EC50: read-out: Ca release EC50
[12] = target: T2, human M1 mAChR; experiment: Calcium mobilization in TET-inducible hM1 TREx CHO cells
[13] = test system: rats; experiment: Amphetamine-induced hyperlocomotion; type: in vivo, rat; settings: 3–56.6 mg/kg i.p. 30 minutes prior to amphetamine
[14] = test system: Schaffer collateral-CA1 synapse in rat hippocampus; settings: 500 nM bath applied 10 minutes prior to threshold TBS; rat hippocampal slices
[15] = target: β3-adrenergic receptors (Homo sapiens, UniProt P13945); experiment: GPCRProfiler calcium assay, β3; type: cell-based; settings: 10 μM compound
[16] = target: T4, M1 muscarinic receptors (Homo sapiens, UniProt P11229); experiment: GPCRProfiler calcium assay, agonist mode, M1; type: cell-based; settings: 10 μM compound
T4 sequence (P11229 1-460): T1 sequence (P11229 1-460)

[17] = test system: 168 G protein coupled receptors (GPCRs); experiment: GPCRProfiler calcium assay, agonist mode, other GPCRs; type: cell-based; settings: 10 μM compound
[18] = target: T5, D4 dopamine receptors (Homo sapiens, UniProt P21917); experiment: GPCRProfiler calcium assay, D4; type: cell-based; settings: 10 μM compound
T5 sequence (P21917 1-419): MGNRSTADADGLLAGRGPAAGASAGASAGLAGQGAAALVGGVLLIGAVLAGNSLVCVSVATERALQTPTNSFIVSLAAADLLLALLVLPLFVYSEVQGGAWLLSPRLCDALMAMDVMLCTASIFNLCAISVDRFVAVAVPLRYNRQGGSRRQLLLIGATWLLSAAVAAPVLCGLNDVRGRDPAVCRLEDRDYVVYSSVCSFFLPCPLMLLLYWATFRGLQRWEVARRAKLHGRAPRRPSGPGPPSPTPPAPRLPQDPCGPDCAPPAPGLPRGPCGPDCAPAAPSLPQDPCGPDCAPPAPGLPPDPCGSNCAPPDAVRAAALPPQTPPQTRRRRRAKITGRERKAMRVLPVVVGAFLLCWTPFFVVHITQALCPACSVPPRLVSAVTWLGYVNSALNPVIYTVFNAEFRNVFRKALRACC

[19] = read-out: ERK EC50, TET 50 ng/mL
[20] = read-out: ERK EC50, TET 1 μg/mL
[21] = read-out: Ca EC50, TET 10 ng/mL
[22] = read-out: Ca EC50, TET 25 ng/mL
[23] = read-out: Ca EC50, TET 50 ng/mL
[24] = i.p., treated groups vs controls

β3-adrenergic receptors, sequence (P13945 whole entry): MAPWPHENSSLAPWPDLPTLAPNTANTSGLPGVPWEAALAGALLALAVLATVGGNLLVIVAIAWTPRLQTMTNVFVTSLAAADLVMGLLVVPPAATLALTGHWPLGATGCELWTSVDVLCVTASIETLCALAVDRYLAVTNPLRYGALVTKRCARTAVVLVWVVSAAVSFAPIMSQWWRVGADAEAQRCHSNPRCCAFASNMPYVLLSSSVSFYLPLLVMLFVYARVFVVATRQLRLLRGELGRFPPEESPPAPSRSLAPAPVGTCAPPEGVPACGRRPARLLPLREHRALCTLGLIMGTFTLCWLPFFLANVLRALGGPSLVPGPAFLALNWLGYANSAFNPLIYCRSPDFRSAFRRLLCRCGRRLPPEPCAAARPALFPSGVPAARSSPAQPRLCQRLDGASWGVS

Row | Structure (SMILES) | effect on β-arrestin recruitment [3] | ERK % CCh max ([4]; TET 0 ng/mL) [% CCh max] | ERK % CCh max ([4]; TET 25 ng/mL) [% CCh max] | ERK % CCh max ([4]; TET 50 ng/mL) [% CCh max] | ERK % CCh max ([4]; TET 1 μg/mL) [% CCh max] | EC50 [4, 19] [µM] | EC50 [4, 20] [µM] | excitatory effect in MSNs (number of spikes per depolarization pulse) ([6]; 30 μM) | β-arrestin2-YFP recruitment (confocal) ([7]; TET 50 ng/mL overnight) | β-arrestin2-YFP recruitment (confocal) ([7]; TET 1 μg/mL overnight) | induction of LTD of fEPSP slope ([8]; 30 μM) | ERK % CCh max [9] [% CCh max] | EC50 [9] [µM] | effect on sEPSC frequency / interevent interval (IEI) [10] | Ca release % CCh max [11] | EC50 [11] [µM] | Ca % CCh max ([12]; TET 0 ng/mL) [% CCh max] | Ca % CCh max ([12]; TET 10 ng/mL) [% CCh max] | Ca % CCh max ([12]; TET 25 ng/mL) [% CCh max] | Ca % CCh max ([12]; TET 50 ng/mL) [% CCh max] | other results
1 | CCOC(=O)N1CCC(N2CCC[C@@H](NC(=O)c3ccccc3C)C2)CC1 [VU0364572] | little or no effect on β-arrestin recruitment | 56.4 | 50.6 | 52.6 | 49.3 | 9.44 | 3.3 | relatively weak excitatory effect | no effect on β-arrestin recruitment | did induce responses | induced robust LTD | 90.5 | 10 | no significant effect on IEI | 70.8 % CCh max | 0.89 | 44.2 | 39.9 | 68.1 | 78.1 | swim distance, day 5 ([1]; 0.1 mg/kg and 10 mg/kg i.p. 30 min prior to first trial, vs vehicle): decreased swim distance; overnight memory retention day 4 to day 5 ([1]; 0.1 mg/kg i.p., vs vehicle): enhanced overnight memory retention; platform crossings during first 30 seconds of probe trial ([1]; 0.1 mg/kg i.p., vs vehicle): increased platform crossings; swim distance, day 4 ([1]; 0.1 mg/kg i.p., vs vehicle): enhancement; acquisition of contextual fear (freezing) ([2]; 0.056, 0.3, and 0.56 mg/kg i.p. 30 min before conditioning): improved acquisition of contextual fear learning; EC50 ([4]; read-out: ERK EC50, TET 0 ng/mL): 108 µM; EC50 ([4]; read-out: ERK EC50, TET 25 ng/mL): 9.88 µM; concentration required to induce effects at D3 receptors [5]: greater than 10 μM; inhibition of binding at D3 receptors [5]: 10%; Ca % CCh max ([12]; TET 1 μg/mL): 86.2 % CCh max; EC50 ([12]; read-out: Ca EC50, TET 0 ng/mL): 30.5 µM; EC50 [12, 21]: 146 µM; EC50 [12, 22]: 2.3 µM; EC50 [12, 23]: 1 µM; EC50 ([12]; read-out: Ca EC50, TET 1 μg/mL): 0.5 µM; reversal of amphetamine-induced hyperlocomotion [13]: fails to reverse this response; potentiation of threshold TBS LTP (fEPSP slope) [14]: significant potentiation of fEPSP slope
2 | CCOC(=O)N1CCC(NCCNC(=O)c2ccccc2C)CC1.Cl [VU0357017] | little or no effect on β-arrestin recruitment | 27.4 | 50.3 | 45.9 | 30.3 | 35.9 | 3.17 | very weak efficacy in inducing excitatory effects | no effect on β-arrestin recruitment | did not induce β-arrestin2 recruitment | did not induce a significant LTD response | 37.9 | 37 | no significant effect on IEI | 41.7 ± 2.37 % CCh max and 41.7 % CCh max | 1.6 | 8.24 | 7.21 | 24.5 | 60.4 | agonist Ca response at β3 [15]: very small responses; overnight memory retention [1, 24]: did not differ from controls; platform crossing on the probe trial [1, 24]: did not differ from controls; swim path distance from days 4 to 5 [1, 24]: did not differ from controls; acquisition of contextual fear (duration of freezing) ([2]; 0.1, 0.3, 0.56, 1, and 3 mg/kg i.p. 30 min before conditioning): robust improvements in acquisition of contextual fear; agonist Ca response at M1 [16]: induced a significant response; agonist activity at other receptor subtypes [17]: little activity; agonist Ca response at D4 [18]: very small responses; Ca % CCh max ([12]; TET 1 μg/mL): 75.3 % CCh max; EC50 [12, 21]: 16 µM; EC50 [12, 22]: 16 µM; EC50 [12, 23]: 1.6 µM; EC50 ([12]; read-out: Ca EC50, TET 1 μg/mL): 0.69 µM; reversal of amphetamine-induced hyperlocomotion [13]: fails to reverse hyperlocomotion; potentiation of threshold TBS LTP (fEPSP slope) [14]: significant potentiation of fEPSP slope
3 | C[N+](C)(C)CCOC(N)=O [CCh, carbachol, reference compound] |  |  |  |  |  |  |  |  |  |  | without effect |  |  | robust increase in sEPSC frequency |  |  |  |  |  |  | excitatory effect in MSNs (number of spikes per depolarization pulse) ([6]; 10 μM): robust excitatory effect; induction of LTD of fEPSP slope ([8]; 50 μM): induced robust LTD; concentration required for induction of the PFC response [10]: > 50 µM
